Structures are written as SMILES. Read-outs that look alike come from different tables or passages of the source.

In assay [1] the test system is male long tailed mealybugs (P. longispinus). The assay is described as follows: Field bioassay of the pheromone enantiomers and the racemate (delta sticky traps). In kind it is in vivo, Pseudococcus longispinus. Conditions: for attractiveness to male mealybugs (trap catches): traps 6 d + 11 d. On the procedure: FIG. 1 depicts Male long tailed mealybugs caught in traps baited with each of the enantiomers of the pheromone, and the racemate. No mealybugs were caught in solvent treated controls.
(The field trials on vineyards were conducted with the help of Prof. Jocelyn Millar, University of California, Riverside, USA)
A field bioassay of the pheromone was conducted at a nursery in Bonsall, Calif., USA, in a 0.49 ha plot of Ruscus hypoglossum L. (plot coordinates: 33°17′18.36″ N, 117°16′55.61″ W elev 113 m) that was known to be infested with P. longispinus. The plot was divided into seven hoop houses (63 m long×7 m wide), six of which were used in this study. Each house (block) was covered in plastic with open ends. Airflow between houses was not restricted because the plastic cover began 1 m above the plant canopy. Four delta sticky traps were spaced every 12.5 m along a transect within each house, suspended directly above the ruscus canopy. Each trap contained an 11 mm gray rubber septum impregnated with a hexane solution of one of four treatments: solvent control, 5 μg of (S)-(+)-enantiomer, 5 μg of (R)-(−)-enantiomer, 10 μg of the racemate. Treatments were assigned randomly along each transect. Traps were replaced, and treatments were repositioned once after 6 d. Traps remained in place for another 11 d. Trap count data were analyzed by analysis of variance after √(x+0.5) transformation of the data to meet the assumptions of normality and equal variances. Differences among means were tested using Tukey's honestly significant differences (HSD) test. There was no significant interaction between the two sampling periods (date) and the treatments (F=3.23, df=2, 30, and P=0.054). Thus, data for each date were combined for the final analysis. There was both a significant effect of date (F=10.19, df=2, 32, P=0.0032) and treatment (F=130.04, df=2, 32, P<0.0001). Controls were not included in the analysis because their zero values and lack of variance violate the assumptions of ANOVA.

Assay [2] concerns male mealybugs (long-tailed mealybug). The conditions noted are these: 25 μg, field trials, cited from earlier work.
[3] abbreviates: 5 μg enantiomer on rubber septum in delta sticky trap, nursery plot of Ruscus hypoglossum.

With `CC(=O)OCCC1(C)C=CCC1(C)C` (racemic) [racemate (±1), 2-(1,5,5-trimethylcyclopent-2-en-1-yl) ethyl acetate], in assay [1] (10 μg of the racemate on rubber septum in delta sticky trap), the “attractiveness to male mealybugs (trap catches)” value (“attractiveness … (trap catches)” for short) is listed as “as attractive as the pure enantiomer”. Further, the entries for the “attractiveness to male mealybugs and its duration” value in assay [2] (listed as racemic form of the pheromone) and in assay [2] (listed as racemic pheromone) were “sufficient to attract mealy bug for three months” and “highly attractive to male mealybugs for more than three months”, respectively.

For `CC(=O)OCC[C@]1(C)C=CCC1(C)C` [(R)-(−)-enantiomer, (−) 2-(1,5,5-trimethylcyclopent-2-en-1-yl)ethyl acetate], the “attractiveness … (trap catches)” value in assay [1] (setting [3]) was “only slightly more attractive than solvent-treated controls”. The “inhibitory effect of the enantiomer on attraction” value in assay [1] (inferred from racemate (10 μg) versus pure enantiomer (5 μg)) is recorded as “not inhibitory”.

As to `CC(=O)OCC[C@@]1(C)C=CCC1(C)C` [(S)-(+)-enantiomer, (+) 2-(1,5,5-trimethylcyclopent-2-en-1-yl)ethyl acetate], the “attractiveness … (trap catches)” value in assay [1] (setting [3]) is listed as “highly attractive”; in assay [1] (5 μg enantiomer on rubber septum in delta sticky trap, nursery plot of Ruscus hypoglossum, listed as (+)1) it was “more activity than racemic pheromone”.

The record behind these values is US9598346B2, “Enantioselective process for the preparation of enantiomers of sex pheromones” (COUNCIL OF SCIENTIFIC AND INDUSTRIAL RESEARCH, priority 2013, dated 2017).
